One experiment concerns the target T1, wild-type CysLT1R (Homo sapiens, UniProt Q9Y271).
T1 construct: expressed in transfected cells; host or cells: HEK293 (ATCC CRL-1573), transient transfection with Lipofectamine 3000
T1 sequence (Q9Y271 1-337): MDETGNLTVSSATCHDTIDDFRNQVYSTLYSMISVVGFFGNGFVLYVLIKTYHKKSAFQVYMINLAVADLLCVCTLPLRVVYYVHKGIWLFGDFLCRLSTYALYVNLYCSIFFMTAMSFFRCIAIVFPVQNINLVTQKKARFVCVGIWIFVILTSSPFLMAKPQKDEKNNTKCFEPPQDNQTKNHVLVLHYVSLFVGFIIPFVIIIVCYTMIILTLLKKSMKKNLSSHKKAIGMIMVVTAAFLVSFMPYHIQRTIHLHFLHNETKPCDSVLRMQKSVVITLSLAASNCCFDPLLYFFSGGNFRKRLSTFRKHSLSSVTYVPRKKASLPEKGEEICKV
Description: IP1 production assay, antagonist mode, co-stimulation with EC80 LTD4. The format is cell-based.

A further experiment has as its target T2, wild-type CysLT2R (Homo sapiens, UniProt Q9NS75).
T2 construct: expressed in transfected cells; host or cells: HEK293 (ATCC CRL-1573), transient transfection with Lipofectamine 3000
T2 sequence (Q9NS75 1-346): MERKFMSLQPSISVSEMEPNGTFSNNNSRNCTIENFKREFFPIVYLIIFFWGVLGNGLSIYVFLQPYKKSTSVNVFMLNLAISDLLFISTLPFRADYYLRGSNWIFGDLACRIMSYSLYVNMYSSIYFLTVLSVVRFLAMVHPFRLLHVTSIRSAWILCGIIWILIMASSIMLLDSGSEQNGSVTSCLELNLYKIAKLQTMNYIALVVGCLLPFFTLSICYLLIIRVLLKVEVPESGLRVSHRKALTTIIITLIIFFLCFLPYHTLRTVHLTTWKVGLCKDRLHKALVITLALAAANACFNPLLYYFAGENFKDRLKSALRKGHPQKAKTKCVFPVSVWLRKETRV
The experiment is described as above. It counts as cell-based.

The subject of the next experiment is CysLT1R. As to conditions: cited from earlier work; for pAct: CysLT1R, ChEMBL value, ref 29 (ChEMBL).
The next experiment deals with CysLT2R. The conditions noted are these: cited from earlier work; for pAct: CysLT2R, ChEMBL value, ref 29 (ChEMBL).

As to `CCc1ccc(CN(C)S(=O)(=O)c2[nH]ncc2C(=O)O)cc1` [BRI-12470], the remaining activity at 30 µM worked out at 81% at wild-type CysLT1R and 58.6% on wild-type CysLT2R. As to `O=C(O)Cn1ccc(NC(=O)CNC(=O)Cc2cccc(F)c2)n1` [BRI-12471], the remaining activity at 30 µM turned out to be 88.2% on wild-type CysLT1R and 50.7% on wild-type CysLT2R.

Consider `CCC(=O)Nc1ccc(S(=O)(=O)NC(C)(C)CC(=O)O)cc1` [BRI-12472], for which the remaining activity at 30 µM on wild-type CysLT1R turned out to be 95.8%; on wild-type CysLT2R, 66.4%. Take `O=C(O)CNC(=O)c1ccc(NC(=O)COCc2ccccc2)cc1` [BRI-12473]: the figures for the remaining activity at 30 µM on wild-type CysLT1R and on wild-type CysLT2R were 86.5% and 66.6%, respectively.

On to `Cc1sc(NC(=O)C(C)(CC(=O)O)C2CCCCC2)c(C(N)=O)c1-c1ccccc1` (stereo not drawn) [BRI-12474], for which the figures for the remaining activity at 30 µM at wild-type CysLT1R and on wild-type CysLT2R were 118% and 106%, respectively. On to `O=C(O)CCc1cccc(NC(=O)c2ccc(-c3cccs3)[nH]c2=O)c1` [BRI-12475], for which the remaining activity at 30 µM is 68.3% at wild-type CysLT1R and 74.6% at wild-type CysLT2R. `CC1(C(=O)Nc2ccc(C(=O)NCCC(=O)O)cc2)CCOCC1` [BRI-12476]: the remaining activity at 30 µM at wild-type CysLT1R was 90.1%; on wild-type CysLT2R, 66.4%.

Take `COC[C@@H](C)n1c(-c2ccc3[nH]c(=O)oc3c2)csc1=Nc1ccc(C(N)=O)cc1` [BRI-12477]: the remaining activity at 30 µM at wild-type CysLT1R came to 74.9%; on wild-type CysLT2R it was 60.6%. Turning to `O=C(NCCc1c[nH]c2cc(Cl)ccc12)c1ccc(NC2=NS(=O)(=O)c3ccccc32)cc1` [BRI-12478], the figures for the remaining activity at 30 µM at wild-type CysLT1R and at wild-type CysLT2R were 82.9% and 65.9%, respectively.

On to `COc1cc(C(=O)NS(=O)(=O)c2ccccc2C)ccc1Cc1cn(C)c2ccc(NC(=O)OC3CCCC3)cc12` [CHEMBL603, Cc1ccccc1S(NC(c1ccc(Cc2cn(C)c3ccc(cc23)NC(=O)OC2CCCC2)c(c1)OC)=O)(=O)=O], for which the pAct in the experiment with CysLT1R was 11.4. Take `O=C(Nc1cccc2c(=O)cc(-c3nn[nH]n3)oc12)c1ccc(OCCCCc2ccccc2)cc1` [CHEMBL21333, C(CCOc1ccc(cc1)C(Nc1cccc2C(C=C(c3nn[nH]n3)Oc12)=O)=O)Cc1ccccc1]: the pAct in the experiment with CysLT1R is given as 9.1. `CN(C)C(=O)CCS[C@H](SCCC(=O)O)c1cccc(C=Cc2ccc3ccc(Cl)cc3n2)c1.[Na]` [CHEMBL89340, CN(C)C(CCS[C@@H](c1cccc(C=Cc2ccc3ccc(cc3n2)[Cl])c1)SCCC(O)=O)=O.[Na]]: the pAct in the experiment with CysLT1R is 8.5. Regarding `CCCC(CCc1nnn[nH]1)Cc1ccc(OCc2ccc3ccccc3n2)cc1` (stereo not drawn) [CHEMBL97356, CCCC(CCc1nnn[nH]1)Cc1ccc(cc1)OCc1ccc2ccccc2n1], in the experiment on CysLT1R, the pAct is on record as 8.0. Consider `O=C(Nc1ccc2ccc(OCc3ccc4ccccc4n3)cc2c1)OCc1ccc(C(=O)O)cc1` [CHEMBL132167, C(c1ccc(cc1)C(O)=O)OC(Nc1ccc2ccc(cc2c1)OCc1ccc2ccccc2n1)=O], for which, in the experiment on CysLT1R, the pAct was 8.0.

As for `CC(C)(O)c1ccccc1CC[C@@H](SCC1(CC(=O)O)CC1)c1cccc(C=Cc2ccc3c(n2)CCS3)c1` [CHEMBL140058, CC(C)(c1ccccc1CC[C@H](c1cccc(C=Cc2ccc3c(CCS3)n2)c1)SCC1(CC1)CC(O)=O)O], in the experiment on CysLT1R, the pAct was 8.5. `CCCCCC=CCC=CC=CC=C[C@@H](SC[C@H](N)C(=O)NCC(=O)O)[C@@H](O)CCCC(=O)O` [CHEMBL288943, CCCCCC=CCC=CC=CC=C[C@H]([C@H](CCCC(O)=O)O)SC[C@@H](C(NCC(O)=O)=O)N]: the pAct in the experiment on CysLT1R is 9.5. As to `CC(C)(O)c1ccc(CC[C@@H](SCC2(CC(=O)O)CC2)c2cccc(C=Cc3ccc4sc(Cl)c(Cl)c4n3)c2)cc1` [CHEMBL313187, CC(C)(c1ccc(CC[C@H](c2cccc(C=Cc3ccc4c(c(c(s4)[Cl])[Cl])n3)c2)SCC2(CC2)CC(O)=O)cc1)O], the pAct in the experiment on CysLT1R was 9.4. On to `O=C(O)c1cc(Cl)cc2c(=O)cc(-c3cccc(C=Cc4ccc5ccccc5n4)c3)oc12` [CHEMBL416769, C(=Cc1ccc2ccccc2n1)c1cccc(c1)C1=CC(c2cc(cc(C(O)=O)c2O1)[Cl])=O], for which the pAct with CysLT1R is 8.0. `COc1cc(C(=O)NS(=O)(=O)c2ccccc2C)ccc1Cc1cn(C)c2ccc(NC(=O)NC3CCCC3)cc12` [CHEMBL431348]: the equilibrium dissociation constant (Kd) at CysLT1R (activity of the ligand from ChEMBL, ref ChEMBL, read-out: Kd (CysLT1)) is 0.79 nM. Take `COc1ccc(NS(=O)(=O)C(F)(F)F)cc1C[C@H]1[C@@H](CO)c2cc(OCc3ccc4ccc(C)cc4n3)ccc2OC1(C)C` [CHEMBL1214531, Cc1ccc2ccc(COc3ccc4c(c3)[C@H](CO)[C@H](Cc3cc(ccc3OC)NS(C(F)(F)F)(=O)=O)C(C)(C)O4)nc2c1]: the pAct in the experiment with CysLT1R is 8.4. With `O=C(O)c1ccc(OCCCc2ccc(OCCCCOc3ccccc3)cc2)c(C(=O)NC2CCCC(C(=O)O)C2)c1` (stereo not drawn) [CHEMBL3342945], the 50% inhibitory concentration (IC50) in the experiment on CysLT2R (activity of the ligand from ChEMBL, ref ChEMBL, read-out: IC50 (CysLT2)) is 53 nM. As to `O=C(O)CCCN1CC(C(=O)O)Oc2c(NC(=O)c3ccc(OCCCCCc4ccccc4)cc3)cccc21` (stereo not drawn) [CHEMBL3342959, C(CCc1ccccc1)CCOc1ccc(cc1)C(Nc1cccc2c1OC(CN2CCCC(O)=O)C(O)=O)=O], in the experiment with CysLT2R, the pAct is reported as 9.2. Take `O=C(O)CCCN1C[C@@H](C(=O)O)Oc2c(NC(=O)c3ccc(OCCCCc4ccccc4)cc3)cccc21` [CHEMBL3342964, C(CCOc1ccc(cc1)C(Nc1cccc2c1O[C@@H](CN2CCCC(O)=O)C(O)=O)=O)Cc1ccccc1]: the pAct with CysLT2R was 9.1. With `O=C(O)CCCN1CC(C(=O)O)Oc2c(C=Cc3ccc(OCCCCc4ccccc4)cc3)cccc21` (stereo not drawn) [CHEMBL3401687, C(CCOc1ccc(C=Cc2cccc3c2OC(CN3CCCC(O)=O)C(O)=O)cc1)Cc1ccccc1], the pAct in the experiment on CysLT2R is recorded as 8.2. Take `O=C(O)CCCN1CC(c2nn[nH]n2)Oc2c(NC(=O)c3ccc(OCCCCc4ccccc4)cc3)cccc21` (stereo not drawn) [CHEMBL3401689, C(CCOc1ccc(cc1)C(Nc1cccc2c1OC(CN2CCCC(O)=O)c1nn[nH]n1)=O)Cc1ccccc1]: in the experiment with CysLT2R, the pAct is 9.3. On to `O=C(O)CCCN1CC(C(=O)NS(=O)(=O)c2ccccc2)Oc2c(NC(=O)c3ccc(OCCCCc4ccccc4)cc3)cccc21` (stereo not drawn) [CHEMBL3401691, C(CCOc1ccc(cc1)C(Nc1cccc2c1OC(CN2CCCC(O)=O)C(NS(c1ccccc1)(=O)=O)=O)=O)Cc1ccccc1], for which the pAct with CysLT2R is on record as 8.2. For `O=C(O)CCCN1CC(c2nnn[nH]2)Oc2c(C=Cc3ccc(OCCCCc4ccccc4)cc3)cccc21` (stereo not drawn) [CHEMBL3403186, C(CCOc1ccc(C=Cc2cccc3c2OC(CN3CCCC(O)=O)c2nnn[nH]2)cc1)Cc1ccccc1], the values for the pAct with CysLT1R and with CysLT2R were 9.2 and 8.5, respectively. In the case of `O=C(O)CCCN1CC(C(=O)O)Oc2c(C=Cc3ccc(OCCCCOc4ccccc4)cc3)cccc21` (stereo not drawn) [CHEMBL3403187, C(CC(O)=O)CN1CC(C(O)=O)Oc2c(C=Cc3ccc(cc3)OCCCCOc3ccccc3)cccc12], the pAct in the experiment with CysLT2R is listed as 9.5. For the compound `O=C(O)CCCc1cn(CC(=O)O)c2c(C=Cc3ccc(OCCCCOc4ccccc4)cc3)cccc12` [CHEMBL3597522, C(CC(O)=O)Cc1cn(CC(O)=O)c2c(C=Cc3ccc(cc3)OCCCCOc3ccccc3)cccc12], in the experiment on CysLT2R, the pAct is 8.2. As to `Cc1c(Cl)cccc1CCCCOc1ccc(C#Cc2cccc3c(CCCC(=O)O)c(C)n(CC(=O)O)c23)cc1` [CHEMBL3597618, Cc1c(CCCCOc2ccc(C#Cc3cccc4c(CCCC(O)=O)c(C)n(CC(O)=O)c34)cc2)cccc1[Cl]], the pAct in the experiment with CysLT1R was 9.7. For `O=C(O)c1[nH]c2ccccc2c1C(=O)Nc1cccc(/C=C/c2ccc3ccc(Cl)cc3n2)c1` [CHEMBL3809164], the concentration for half-maximal inhibition (IC50) in the experiment with CysLT1R (activity of the ligand from ChEMBL, ref ChEMBL, read-out: IC50 (CysLT1)) was 35 nM.

As for `COc1cccc2c(C=CC(=O)Nc3cccc(C=Cc4ccc5ccc(Cl)cc5n4)c3)c(C(=O)O)[nH]c12` [CHEMBL3810210, COc1cccc2c(C=CC(Nc3cccc(C=Cc4ccc5ccc(cc5n4)[Cl])c3)=O)c(C(O)=O)[nH]c12], the pAct in the experiment with CysLT1R is reported as 8.2.

These data come from publication PMC7761830, “Structure-Based Virtual Screening of Ultra-Large Library Yields Potent Antagonists for a Lipid GPCR” (Biomolecules, 2020).
